Results reported in the METLIN SMRT retention time set (Domingo-Almenara et al. 2019).

Assay: gradient 5% acetonitrile 3 min, to 50% in 2 min, to 85% in 15 min, held 3 min, 100 µL/min
Conditions: column: Zorbax Extend-C18 2.1 x 50 mm; eluents: water / acetonitrile, 0.1% formic acid
In short: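 The mobile phases were water and acetonitrile, each with 0.1% formic acid, pumped at 100 μL/min through a Zorbax Extend-C18 column (2.1 × 50 mm, 1.8 μm). Pure standards were injected as mixtures of ~100 molecules and detected by a quadrupole time-of-flight mass spectrometer in positive and negative ionization mode. Retention time came from computationally picked adduct peaks, each inspected by hand.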

| RP-LC retention time | SMILES |
| --- | --- |
| 788 s | O=C1CCCc2cc(S(=O)(=O)N3CCCC(C(=O)N4CCN(c5ccccc5)CC4)C3)ccc2N1 (stereo unspecified) |
| 898 s | CCN1C(=O)c2cccnc2Sc2cc(NC(=O)c3cc(C)ccc3C)ccc21 |
| 603 s | O=C(CSc1ccc(N2CCCC(C(=O)NC3CC3)C2)nn1)NCc1ccccc1 (stereo unspecified) |
| 554 s | CCOC(=O)c1c(C)[nH]c(CCC(=O)NCCN2CCCC2)c1C |
| 597 s | CS(=O)(=O)N1C[C@H]2CCN(Cc3ccc(F)cc3Cl)C[C@H]21 |
| 914 s | Cc1ccc(C)c(Cn2nc3c(S(=O)(=O)N4CCCC4)cccn3c2=O)c1 |
| 897 s | CCOC(=O)c1c(S(=O)(=O)N2CCC(C(=O)Nc3ccc(F)cc3C)CC2)c(C)n(C)c1C |
| 574 s | Cc1cc(=O)oc2cc(OCC(O)CN3CCN(c4ccccn4)CC3)ccc12 (stereo unspecified) |
| 830 s | COCCOCc1nc(C2CCCN2S(=O)(=O)c2cc(F)ccc2F)no1 (stereo unspecified) |
| 857 s | CCN(CC)C(=O)CN1C(=O)C2(NC(C)C3C(=O)N(Cc4ccccc4)C(=O)C32)c2ccccc21 (stereo unspecified) |
| 774 s | Cc1noc(-c2nn(C)c3c2CN(C(=O)c2ccc(Br)cc2)CC3)n1 |
| 1200 s | COc1ccc(OC)c(NC(=O)c2cc3nc(-c4cccs4)cc(C(F)(F)F)n3n2)c1 |
| 872 s | CC(C)CNC(=O)C1CCCN(c2nccn3nc(-c4ccccc4Cl)cc23)C1 (stereo unspecified) |
| 623 s | CCn1cc(-c2ccc(OC)cc2)cc1C(=O)NCCN1CCN(C)CC1 |
| 646 s | COCCc1nncn1C1CCN(C(=O)c2ccccc2OC(F)(F)F)CC1 |
| 656 s | Cc1cccc(-c2nc3ccccn3c2NC(=O)NCc2ccccc2)c1 |
| 1250 s | COc1ccccc1-c1csc(NC(=O)c2sc(-c3ccccc3)nc2C)n1 |
| 874 s | COc1ccc(CCc2nc3nccc(-c4ccc5c(c4)OCCCO5)n3n2)cc1OC |
| 867 s | COc1ccc(-c2ccnc3nc(CCc4ccc(OC)c(OC)c4)nn23)c(F)c1 |
| 554 s | O=C(NCC1CCN(Cc2ccsc2)CC1)Nc1ccc2c(c1)OCO2 |
| 752 s | O=C(NCc1ccc2c(c1)OCO2)C1CCN(C(=O)c2ncn3c2COC(c2ccccc2)C3)CC1 (stereo unspecified) |
| 878 s | O=C(NC1CC1)C1CCN(S(=O)(=O)c2cc(-c3noc(C4CCC4)n3)cs2)CC1 |

| RP-LC retention time | SMILES |
| --- | --- |
| 730 s | CCn1c(CC2C(=O)Nc3ccccc32)nc2ccccc2c1=O (stereo unspecified) |
| 607 s | COc1ccc(-c2cn3c(CC(=O)NC4CC4)csc3n2)cc1OC |
| 768 s | COCCC1CCN(C(=O)COc2ccc(OC)cc2)CC1 |
| 981 s | O=C(NC1CCCCC1)c1nc(Cn2c(=O)oc3ccc(Cl)cc32)no1 |
| 567 s | CC1=C(C(=O)NCCCN2CC(C)CC(C)C2)C2(CCN(Cc3ccccc3)CC2)OC1=O (stereo unspecified) |
| 776 s | Cc1cc(C)cc(NC(=O)N(C)CC2CCOCC2)c1 |
| 1020 s | CCc1nn(CC)c(=O)c2cc(S(=O)(=O)NCc3ccc(F)cc3Cl)cn12 |
| 772 s | O=C(NCCc1ccc(Cl)cc1)C(=O)Nc1ccon1 |
| 1110 s | COC(=O)c1ccc2c(=O)n(CCc3ccccc3)c(N3CCSC3)nc2c1 |
| 656 s | CCOC(=O)c1ccc(NC(=O)CSc2ccc3nnc(-c4ccccn4)n3n2)cc1 |
| 597 s | Cc1[nH]c(C(=O)N2CCCC(C(=O)NCCCN3CCOCC3)C2)c(C)c1C (stereo unspecified) |
| 921 s | COc1cccc(NC(=O)C2CCCN(c3nc4ccsc4c(=O)n3-c3cccc(OC)c3)C2)c1 (stereo unspecified) |
| 679 s | O=C(c1ccc(F)cc1)N1CCC2(CC1)OCC(C(=O)N1CCOCC1)N2C(=O)c1cccc(F)c1 (stereo unspecified) |
| 568 s | NS(=O)(=O)c1ccc(CCNC(=O)c2cnc3sccn3c2=O)cc1 |
| 717 s | CCn1cc(-c2ccc(Cl)cc2)cc1C(=O)N1CCN(C(C)C)CC1 |
| 900 s | COc1ccc(NC(=O)CN2C(=O)CCc3cc(Br)ccc32)c(OC)c1 |
| 966 s | COc1ccc(-c2ncc3c(n2)CCN(C(=O)c2cc(F)ccc2Cl)C3)cc1 |
| 605 s | CNC(=O)C1CCCN(c2nc3ncn(CC(=O)NC4CCCC4)c(=O)c3s2)C1 (stereo unspecified) |
| 574 s | O=C(CN1C(=O)CCC1=O)N1CC(c2nc(-c3cnccn3)no2)C1 |
| 730 s | O=S(=O)(c1ccc(Cl)cc1)N1CCC2(CC1)NCCN=C2NCc1ccccc1F |
| 581 s | Cn1cnnc1SCC(=O)N1CCCCCC1 |
| 712 s | COc1ccccc1NC(=O)Nc1nc(CC(=O)NCc2ccco2)cs1 |

| RP-LC retention time | SMILES |
| --- | --- |
| 834 s | CC1(C(=O)N2CC(F)(F)C[C@H]2c2nnc(-c3ccccc3)o2)CC1 |
| 573 s | CCC1Oc2ccc(S(=O)(=O)N3CCC(C(=O)N4CCN(CC)CC4)CC3)cc2NC1=O (stereo unspecified) |
| 935 s | COc1cccc(Cn2cccc(S(=O)(=O)N3CCCCCC3)c2=O)c1 |
| 864 s | COc1ccc(CN(CCC2(C(C)C)CCOC(C)(C)C2)C(C)=O)cc1OC (stereo unspecified) |
| 746 s | O=C(Cc1nnc(-c2cccc(F)c2)o1)NC1CCCC1 |
| 828 s | COc1cc(=O)n(-c2ccccc2)nc1C(=O)NC(c1ccccc1)c1ccccc1 |
| 645 s | COc1ccc2c(C)c(CCC(=O)N3CCC(C(N)=O)CC3)c(=O)oc2c1 |
| 765 s | Cn1c(N2CCCC(C(=O)N3CCN(c4ccccc4F)CC3)C2)cc(=O)n(C)c1=O (stereo unspecified) |
| 670 s | O=C(Cn1c(=O)oc2ccccc21)N1CCN(S(=O)(=O)C2CC2)CC1 |
| 818 s | Cc1ccc(N2C(=O)CN(S(C)(=O)=O)CC2(C)C(=O)NCc2ccc(F)cc2)cc1C (stereo unspecified) |
| 668 s | CCn1c(=O)c(SCC(=O)NCC2CCN(Cc3ccc(C)cc3)C2)nc2ccccc21 (stereo unspecified) |
| 917 s | Cc1ccc(S(=O)(=O)NCCc2nc(-c3cccc(-c4ccnn4C)c3)no2)cc1 |
| 723 s | O=C(NCc1ccccc1F)c1cn2cc(Cl)ccc2n1 |
| 800 s | Cn1c(N2CCCC(C(=O)N3CCN(c4ccc(Cl)cc4)CC3)C2)cc(=O)n(C)c1=O (stereo unspecified) |
| 738 s | NC(=O)c1ccc(NC(=O)CSC2=Nc3ccccc3N=C(c3ccccn3)C2)cc1 |
| 921 s | O=C(COC(=O)c1cccc([N+](=O)[O-])c1)c1ccc(NC(=O)c2ccccc2)cc1 |
| 1090 s | CCCN1C(=O)COc2ccc(-c3noc(COc4ccc(F)cc4)n3)cc21 |
| 661 s | Cc1oc(-c2ccc(C(=O)NCCN3CCN(C)CC3)cc2)nc1CSc1ccccc1 |
| 1170 s | Cc1ccccc1-c1nc(-c2ccc(S(=O)(=O)N3CCOCC3)cc2)no1 |
| 868 s | O=C(NC1CC1)c1ccc(OCC2CCN(C(=O)Cc3ccccc3Cl)CC2)cc1 |
| 1130 s | CCOc1ccccc1-c1noc(-c2nnn3c2COC(c2ccc(F)cc2)C3)n1 (stereo unspecified) |
| 711 s | CCc1noc2nc(C)nc(N3CCCC(C(=O)NC4CC4)C3)c12 (stereo unspecified) |
